Measured values taken from patent US20250263396A1, “CRYSTALLINE FORMS OF 3-(5-(2-HYDROXY-2- METHYLPROPOXY)-6-METHYPYRAZIN-2-YL)-1H-INDOLE-7-CARBONITRILE” (NIDO BIOSCIENCES, INC., priority 2024, published 2025).
Where two headings read alike, the source gives them in different places.

Tests used:
[1] = Competitive equilibration experiments
Description: Relative stability of the anhydrate Forms A, C, H and J was investigated with competitive equilibration experiments.
Relative stability of the anhydrates Forms C, K and L was investigated with competitive equilibration experiments.
Relative stability of the anhydrates Form C and Form P was systematically investigated with competitive equilibration experiments.
About 5 mg of Form C and about 5 mg of Form P were added to 0.25 mL of saturated solutions of selected solvents. Obtained suspensions were stirred at 25° C., 50° C. and 70° C. for 4 days, respectively. Solid parts (wet cakes) were isolated by centrifugation filtration and investigated by XRPD.
About 10 mg of Form C and about 10 mg of Form P were added to 0.5 mL saturated solutions of selected solvents. Obtained suspensions were stirred at 80/C and 90 C, respectively. Solid parts (wet cakes) were be isolated by centrifugation filtration and investigated by XRPD.
About 3 mg of the Form P and 3 mg of the mixture of Form P and Form J were added to 0.2 mL of saturated solutions of selected solvents. Obtained suspensions were stirred at 25° C., 50° C. and 70° C. for 4 days, respectively. Solid parts (wet cakes) were isolated by centrifugation filtration and investigated by XRPD.
About 3 mg of Form P and 3 mg of the physical mixture of Form P and Form R were added to 0.2 mL of saturated solutions of 2-MeTHF. Obtained suspensions were stirred at 25° C., 50° C. and 70° C., respectively. Solid parts (wet cakes) were isolated by centrifugation filtration and investigated by XRPD.
About 1.5 mg of Form P, 1.5 mg of Form X and 1.5 mg Form Y were added to 0.15 mL saturated solution of 2-MeTHF. Obtained suspensions were stirred at 25° C., 50° C. and 70° C., respectively. Solid parts (wet cake) were isolated by centrifugation filtration and investigated by XRPD.

[2] = Competitive water activity experiments; conditions: whole range of water activity (0≤a.w.≤1)
[3] = Form change on heating, dehydration or desolvation (TGA, DSC, variable temperature XRPD); assay type: physicochemical
[4] = as above; assay type: physicochemical; conditions: variable temperature XRPD
Description: Relative stability of the anhydrates Form R and Form P was investigated by variable temperature XRPD and competitive equilibration experiments.
Relative stability of the anhydrates Form B, Form X, Form Y and Form C was investigated by variable temperature XRPD. Form B converted to Form X, Form Y and Form C after heating to 150° C., 176° C. and 180° C., respectively.

[5] = Equilibration with solvents; assay type: physicochemical
Description: Obtained suspensions were filtered through a 0.45 μm nylon membrane filter by centrifugation at 14,000 rpm. Solid parts (wet cakes) were investigated by XRPD. For samples with different XRPD patterns, additional analysis including DSC, TGA, ^1H-NMR were performed.
(§1) Obtained suspensions were filtered through a 0.45 μm nylon membrane filter by centrifugation at 14,000 rpm.
as §1

## Cc1nc(-c2c[nH]c3c(C#N)cccc23)cnc1OCC(C)(C)O [Form A, 3-(5-(2-hydroxy-2-methylpropoxy)-6-methylpyrazin-2-yl)-1H-indole-7-carbonitrile]
[1]; at both 25° C. and 50° C.
  Form conversion (relative stability): converts to Form C

## Cc1nc(-c2c[nH]c3c(C#N)cccc23)cnc1OCC(C)(C)O [Form B, 3-(5-(2-hydroxy-2-methylpropoxy)-6-methylpyrazin-2-yl)-1H-indole-7-carbonitrile]
[2]
  Relative stability in water activity experiments: converts to anhydrate Form C
[3]
  Form after dehydration: converts to Form K
[4]; heating to 150° C.
  Form after heating: Form X
[4]; heating to 176° C.
  Form after heating: Form Y
[4]; heating to 180° C.
  Form after heating: Form C

## Cc1nc(-c2c[nH]c3c(C#N)cccc23)cnc1OCC(C)(C)O [Form C and Form P, 3-(5-(2-hydroxy-2-methylpropoxy)-6-methylpyrazin-2-yl)-1H-indole-7-carbonitrile]
[1]; 1,4-Dioxane, 25° C. for 4 days
  XRPD after competitive equilibration: Form D
[1]; 1,4-Dioxane, 50° C. for 4 days
  XRPD after competitive equilibration: Form D
[1]; 1,4-Dioxane, 70° C. for 4 days
  XRPD after competitive equilibration: Form D
[1]; 2-MeTHF, 25° C. for 4 days
  XRPD after competitive equilibration: Form P
[1]; 2-MeTHF, 50° C. for 4 days
  XRPD after competitive equilibration: Form P
[1]; 2-MeTHF, 70° C. for 4 days
  XRPD after competitive equilibration: Form P
[1]; Acetone, 25° C. for 4 days
  XRPD after competitive equilibration: Form P
[1]; Acetone, 50° C. for 4 days
  XRPD after competitive equilibration: Form P
[1]; Acetone, 70° C. for 4 days
  XRPD after competitive equilibration: Form P
[1]; Acetone/water (v:v = 36:64) a.w = 0.9, 25° C. for 4 days
  XRPD after competitive equilibration: Form P
[1]; Acetone/water (v:v = 36:64) a.w = 0.9, 50° C. for 4 days
  XRPD after competitive equilibration: Form P
[1]; Acetone/water (v:v = 36:64) a.w = 0.9, 70° C. for 4 days
  XRPD after competitive equilibration: Form P
[1]; Acetone/water (v:v = 76.5:23.5) a.w = 0.7, 25° C. for 4 days
  XRPD after competitive equilibration: Form P
[1]; Acetone/water (v:v = 76.5:23.5) a.w = 0.7, 50° C. for 4 days
  XRPD after competitive equilibration: Form P
[1]; Acetone/water (v:v = 76.5:23.5) a.w = 0.7, 70° C. for 4 days
  XRPD after competitive equilibration: Form P
[1]; Acetone/water (v:v = 95.2:4.8) a.w = 0.4, 25° C. for 4 days
  XRPD after competitive equilibration: Form P
[1]; Acetone/water (v:v = 95.2:4.8) a.w = 0.4, 50° C. for 4 days
  XRPD after competitive equilibration: Form P
[1]; Acetone/water (v:v = 95.2:4.8) a.w = 0.4, 70° C. for 4 days
  XRPD after competitive equilibration: Form P
[1]; Acetonitrile, 25° C. for 4 days
  XRPD after competitive equilibration: Form P
[1]; Acetonitrile, 50° C. for 4 days
  XRPD after competitive equilibration: Form P
[1]; Acetonitrile, 70° C. for 4 days
  XRPD after competitive equilibration: Form P
[1]; DCM, 25° C. for 4 days
  XRPD after competitive equilibration: Form P
[1]; DMSO/water (v:v = 1:5 a.w. = 0.94), 80° C. for about 6 d
  XRPD after competitive equilibration: Form P
[1]; DMSO/water (v:v = 1:5 a.w. = 0.94), 90° C. for about 8 d
  XRPD after competitive equilibration: Form C (majority) +
[1]; DMSO/water (v:v = 1:5 a.w. = 0.94), 90° C. for about 18 d
  XRPD after competitive equilibration: Form C
[1]; Ethanol, 25° C. for 4 days
  XRPD after competitive equilibration: Form P
[1]; Ethanol, 50° C. for 4 days
  XRPD after competitive equilibration: Form P
[1]; Ethanol, 70° C. for 4 days
  XRPD after competitive equilibration: Form P
[1]; Ethyl acetate, 25° C. for 4 days
  XRPD after competitive equilibration: Form P
[1]; Ethyl acetate, 50° C. for 4 days
  XRPD after competitive equilibration: Form P
[1]; Ethyl acetate, 70° C. for 4 days
  XRPD after competitive equilibration: Form P
[1]; Heptane, 25° C. for 4 days
  XRPD after competitive equilibration: Form P
[1]; Heptane, 50° C. for 4 days
  XRPD after competitive equilibration: Form P
[1]; Heptane, 70° C. for 4 days
  XRPD after competitive equilibration: Form P
[1]; Heptane, 90° C. for about 8 d
  XRPD after competitive equilibration: Form C + Form P
[1]; Heptane, 90° C. for about 18 d
  XRPD after competitive equilibration: Form C + Form P
[1]; Isopropyl acetate, 25° C. for 4 days
  XRPD after competitive equilibration: Form P
[1]; Isopropyl acetate, 50° C. for 4 days
  XRPD after competitive equilibration: Form P
[1]; Isopropyl acetate, 70° C. for 4 days
  XRPD after competitive equilibration: Form P
[1]; MEK, 25° C. for 4 days
  XRPD after competitive equilibration: Form P
[1]; MEK, 50° C. for 4 days
  XRPD after competitive equilibration: Form P
[1]; MEK, 70° C. for 4 days
  XRPD after competitive equilibration: Form P
[1]; NMP, 25° C. for 4 days
  XRPD after competitive equilibration: Form Q, NMP
[1]; THF, 25° C. for 4 days
  XRPD after competitive equilibration: Form P
[1]; THF, 50° C. for 4 days
  XRPD after competitive equilibration: Form P
[1]; Toluene, 90° C. for about 8 d
  XRPD after competitive equilibration: Form C
[1]; Water, 25° C. for 4 days
  XRPD after competitive equilibration: Form P
[1]; Water, 50° C. for 4 days
  XRPD after competitive equilibration: Form P
[1]; Water, 70° C. for 4 days
  XRPD after competitive equilibration: Form P
[1]; Water, 90° C. for about 8 d
  XRPD after competitive equilibration: Form C + Form P
[1]; Water, 90° C. for about 18 d
  XRPD after competitive equilibration: Form P

## Cc1nc(-c2c[nH]c3c(C#N)cccc23)cnc1OCC(C)(C)O [Form D, 3-(5-(2-hydroxy-2-methylpropoxy)-6-methylpyrazin-2-yl)-1H-indole-7-carbonitrile]
[3]
  Form after desolvation: converts to Form C

## Cc1nc(-c2c[nH]c3c(C#N)cccc23)cnc1OCC(C)(C)O [Form E, 3-(5-(2-hydroxy-2-methylpropoxy)-6-methylpyrazin-2-yl)-1H-indole-7-carbonitrile]
[3]; heating to 100° C. by TGA and cooled to room temperature
  Form after heating: converts to physical mixture of Form F and Form G

## Cc1nc(-c2c[nH]c3c(C#N)cccc23)cnc1OCC(C)(C)O [Form G, 3-(5-(2-hydroxy-2-methylpropoxy)-6-methylpyrazin-2-yl)-1H-indole-7-carbonitrile]
[5]; DMSO/water system at 25° C. for 6 days
  Form after equilibration: converts to anhydrate Form H

## Cc1nc(-c2c[nH]c3c(C#N)cccc23)cnc1OCC(C)(C)O [Form I, 3-(5-(2-hydroxy-2-methylpropoxy)-6-methylpyrazin-2-yl)-1H-indole-7-carbonitrile]
[3]; heating to 140° C. by TGA and cooled to room temperature
  Form after heating: converted to physical mixture of Form C, Form N and an unknown peak

## Cc1nc(-c2c[nH]c3c(C#N)cccc23)cnc1OCC(C)(C)O [Form M, 3-(5-(2-hydroxy-2-methylpropoxy)-6-methylpyrazin-2-yl)-1H-indole-7-carbonitrile]
[5]; MeOH at 25° C. for another 1 day
  Form after equilibration: converts to Form B

## Cc1nc(-c2c[nH]c3c(C#N)cccc23)cnc1OCC(C)(C)O [Form N, 3-(5-(2-hydroxy-2-methylpropoxy)-6-methylpyrazin-2-yl)-1H-indole-7-carbonitrile]
[2]
  Relative stability in water activity experiments: converts to Form C

## Cc1nc(-c2c[nH]c3c(C#N)cccc23)cnc1OCC(C)(C)O [Form P + Form X + Form Y, 3-(5-(2-hydroxy-2-methylpropoxy)-6-methylpyrazin-2-yl)-1H-indole-7-carbonitrile]
[1]; 2-MeTHF, 25° C. for about 3 days
  XRPD after competitive equilibration: Form P
[1]; 2-MeTHF, 50° C. for about 3 days
  XRPD after competitive equilibration: Form P
[1]; 2-MeTHF, 70° C. for about 3 days
  XRPD after competitive equilibration: Form P

## Cc1nc(-c2c[nH]c3c(C#N)cccc23)cnc1OCC(C)(C)O [Form Q, 3-(5-(2-hydroxy-2-methylpropoxy)-6-methylpyrazin-2-yl)-1H-indole-7-carbonitrile]
[3]; desolvation by heating to 150° C.
  Form after desolvation: converted to a physical mixture of Form C (majority) and Form Q

## Cc1nc(-c2c[nH]c3c(C#N)cccc23)cnc1OCC(C)(C)O [Form R, 3-(5-(2-hydroxy-2-methylpropoxy)-6-methylpyrazin-2-yl)-1H-indole-7-carbonitrile]
[1]; at both 25° C. and 70° C.
  Form conversion (relative stability): converts to Form P

## Cc1nc(-c2c[nH]c3c(C#N)cccc23)cnc1OCC(C)(C)O [Form S, 3-(5-(2-hydroxy-2-methylpropoxy)-6-methylpyrazin-2-yl)-1H-indole-7-carbonitrile]
[2]
  Relative stability in water activity experiments: converted to anhydrate Form P

## Cc1nc(-c2c[nH]c3c(C#N)cccc23)cnc1OCC(C)(C)O [Form U, 3-(5-(2-hydroxy-2-methylpropoxy)-6-methylpyrazin-2-yl)-1H-indole-7-carbonitrile]
[3]
  Form after desolvation: converted to Form C

## Cc1nc(-c2c[nH]c3c(C#N)cccc23)cnc1OCC(C)(C)O [Form X, 3-(5-(2-hydroxy-2-methylpropoxy)-6-methylpyrazin-2-yl)-1H-indole-7-carbonitrile]
[1]; at 25° C., 50° C. and 70° C.
  Form conversion (relative stability): converts to Form P
